What is called pIC50 is the negative decadic logarithm of the IC50, by convention in mol/L.

pIC50: −log10 of the molar value.

For the first assay, the target named is T1, N-formyl peptide receptor 2 (Homo sapiens, UniProt P25090).
T1 sequence (P25090 whole entry): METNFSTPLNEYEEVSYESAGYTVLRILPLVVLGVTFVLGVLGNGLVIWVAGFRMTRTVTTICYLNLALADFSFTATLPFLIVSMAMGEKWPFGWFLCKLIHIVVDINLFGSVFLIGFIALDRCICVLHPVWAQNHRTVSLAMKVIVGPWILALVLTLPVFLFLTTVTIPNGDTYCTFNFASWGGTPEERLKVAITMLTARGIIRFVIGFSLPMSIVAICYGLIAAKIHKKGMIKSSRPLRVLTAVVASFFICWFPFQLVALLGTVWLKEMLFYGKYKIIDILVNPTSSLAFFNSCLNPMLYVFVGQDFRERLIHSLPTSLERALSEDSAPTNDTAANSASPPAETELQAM
The experiment in a line: FPRL1 fluorescent ligand binding inhibitors, dose response, cell-based, flow cytometry, Ki from IC50 (AID 766).
Conditions: not given
In turn, `O=C(N1CCN(c2nc(-c3ccccc3)c3ccccc3n2)CC1)C(F)(F)F` [2,2,2-trifluoro-1-[4-(4-phenyl-2-quinazolinyl)-1-piperazinyl]ethanone] showed a pIC50 below 4.24.

As to `COc1ccc(-c2cc(C(F)(F)F)nc(N3CCN(C(c4ccccc4)c4ccccc4)CC3)n2)cc1OC` [2-(4-benzhydrylpiperazin-1-yl)-4-(3,4-dimethoxyphenyl)-6-(trifluoromethyl)pyrimidine], the pIC50 is below 4.38.

In the case of `COc1ccc(-c2cc(C(F)(F)F)nc(N3CCN(c4ccccc4)CC3)n2)cc1OC` [4-(3,4-dimethoxyphenyl)-2-(4-phenyl-1-piperazinyl)-6-(trifluoromethyl)pyrimidine], the pIC50 was below 4.30.

On to `CCOC(=O)N1CCN(c2nc(-c3ccc(OC)c(OC)c3)cc(C(F)(F)F)n2)CC1` [4-[4-(3,4-dimethoxyphenyl)-6-(trifluoromethyl)-2-pyrimidinyl]-1-piperazinecarboxylic acid ethyl ester], for which the negative logarithm of the IC50 (pIC50) is below 4.30.

In the case of `COc1ccc(-c2cn3cccnc3n2)cc1NC(=O)C1CC1` [MLS000045944], the pIC50 was 5.17.

In the case of `COc1ccc(-c2cn3cccnc3n2)cc1NC(=O)C1CCCC1` [MLS000045945], the pIC50 is below 4.18.

`COc1ccc(CC(=O)Nc2cc(-c3cn4cccnc4n3)ccc2OC)cc1` [N-(5-imidazo[1,2-a]pyrimidin-2-yl-2-methoxy-phenyl)-2-(4-methoxyphenyl)acetamide] had a pIC50 of 5.00.

In turn, `COc1ccc(-c2cn3cccnc3n2)cc1NC(=O)C(C)C` [N-(5-imidazo[1,2-a]pyrimidin-2-yl-2-methoxy-phenyl)-2-methyl-propanamide] gave a pIC50 of 5.44.

In turn, `CCC(=O)Nc1cc(-c2cn3cccnc3n2)ccc1OC` [N-(5-imidazo[1,2-a]pyrimidin-2-yl-2-methoxy-phenyl)propanamide] had a pIC50 of 4.97.

Staying with this assay, now noted: inactive by the depositor's call.
Turning to `COc1ccc(-c2cc(C(F)(F)F)nc(N3CCN(Cc4ccccc4)CC3)n2)cc1OC` [2-(4-benzylpiperazin-1-yl)-4-(3,4-dimethoxyphenyl)-6-(trifluoromethyl)pyrimidine], the pIC50 was 4.78.

The record behind these values is BindingDB's records for doi:10.7270/Q2NP22V6 (NMMLSC, 2007).
